Test results reported in ChEMBL document CHEMBL1921720, “A new antifungal briarane diterpenoid from the gorgonian Junceella juncea Pallas” (2011).
Calls of active or inactive are those of the source. The rule behind the calls is not given here.

Legend:
Assay type in all cases: functional
[1] = test system: Aspergillus niger; assay: Antifungal activity against Aspergillus niger at 200 ug/mL after 48 hrs by agar cup diffusion assay; conditions: for zone of inhibition at 200 µg/mL: read-out: DIZ
[2] = test system: Proteus vulgaris; assay: Antibacterial activity against Proteus vulgaris at 200 ug/mL after 24 hrs by agar cup diffusion method; conditions: for zone of inhibition at 200 µg/mL: read-out: DIZ
[3] = test system: Bacillus subtilis; assay: Antibacterial activity against Bacillus subtilis at 200 ug/mL after 24 hrs by agar cup diffusion method; conditions: for zone of inhibition at 200 µg/mL: read-out: DIZ
[4] = test system: Candida albicans; assay: Antifungal activity against Candida albicans at 200 ug/mL after 48 hrs by agar cup diffusion assay; conditions: for zone of inhibition at 200 µg/mL: read-out: DIZ
[5] = test system: Bacillus pumilus; assay: Antibacterial activity against Bacillus pumilus at 200 ug/mL after 24 hrs by agar cup diffusion method; conditions: for zone of inhibition at 200 µg/mL: read-out: DIZ
[6] = test system: Escherichia coli; assay: Antibacterial activity against Escherichia coli at 200 ug/mL after 24 hrs by agar cup diffusion method; conditions: for zone of inhibition at 200 µg/mL: read-out: DIZ
[7] = test system: Penicillium chrysogenum; assay: Antifungal activity against Penicillium chrysogenum at 200 ug/mL after 48 hrs by agar cup diffusion assay

Question: For `C=C1CC[C@H](OC(C)=O)[C@@]2(C)[C@@H](OC(=O)CC(C)C)C[C@@H](OC(C)=O)[C@]3(CO3)[C@@H]2[C@H](OC(C)=O)[C@@]2(O)[C@H](C1)OC(=O)[C@@H]2C`, which zone of inhibition at 200 µg/mL [1] is on record?
Answer: 18 mm

Question: What about the “diameter of the inhibition zone (DIZ)” value [2] of the same compound?
Answer: inactive

Question: And the “diameter of the inhibition zone (DIZ)” value [3]?
Answer: inactive

Question: And the zone of inhibition at 200 µg/mL [4]?
Answer: 17 mm

Question: And the “diameter of the inhibition zone (DIZ)” value [5]?
Answer: inactive

Question: And the “diameter of the inhibition zone (DIZ)” value [6]?
Answer: inactive

Question: And the zone of inhibition at 200 µg/mL ([7]; read-out: DIZ)?
Answer: 16 mm

Question: Which results are given for `CC1(C)S[C@@H]2[C@H](NC(=O)[C@H](N)c3ccccc3)C(=O)N2[C@H]1C(=O)O` [AMPICILLIN]?
Answer: diameter of the inhibition zone (DIZ) [1]: inactive; zone of inhibition at 200 µg/mL [2]: 16 mm; zone of inhibition at 200 µg/mL [3]: 17 mm; diameter of the inhibition zone (DIZ) [4]: inactive; zone of inhibition at 200 µg/mL [5]: 18 mm; zone of inhibition at 200 µg/mL [6]: 17 mm; diameter of the inhibition zone (DIZ) [7]: inactive

Question: Which results are given for `C=C1CC[C@H](OC(C)=O)[C@@]2(C)[C@@H](OC(C)=O)[C@@H](OC(C)=O)[C@@H](OC(C)=O)[C@]3(CO3)[C@@H]2[C@H](OC(C)=O)[C@]2(O)[C@@H](C)C(=O)O[C@H]2[C@H]1Cl` [GEMMACOLIDE A]?
Answer: zone of inhibition at 200 µg/mL [1]: 10 mm; zone of inhibition at 200 µg/mL [2]: 12 mm; zone of inhibition at 200 µg/mL [3]: 10 mm; zone of inhibition at 200 µg/mL [4]: 8 mm; zone of inhibition at 200 µg/mL [5]: 19 mm; zone of inhibition at 200 µg/mL [6]: 20 mm; diameter of the inhibition zone (DIZ) [7]: inactive

Question: `C=C1CC[C@H](OC(C)=O)[C@@]2(C)[C@@H](OC(C)=O)[C@@H](OC(=O)CC(C)C)[C@@H](OC(C)=O)[C@]3(CO3)[C@@H]2[C@H](OC(C)=O)[C@]2(O)[C@@H](C)C(=O)O[C@H]2[C@H]1Cl` [GEMMACOLIDE B] was tested. Which zone of inhibition at 200 µg/mL [1] did it give?
Answer: 10 mm

Question: And the zone of inhibition at 200 µg/mL [2]?
Answer: 12 mm

Question: What about the zone of inhibition at 200 µg/mL [3] of the same compound?
Answer: 10 mm

Question: And the zone of inhibition at 200 µg/mL [4]?
Answer: 8 mm

Question: What about the zone of inhibition at 200 µg/mL [5] of the same compound?
Answer: 19 mm

Question: What about the zone of inhibition at 200 µg/mL [6] of the same compound?
Answer: 20 mm

Question: What about the “diameter of the inhibition zone (DIZ)” value [7] of the same compound?
Answer: inactive

Question: How did the zone of inhibition at 200 µg/mL [1] turn out when `C=C1CC[C@H](OC(C)=O)[C@@]2(C)[C@@H](OC(=O)CC(C)C)C[C@@H](OC(C)=O)[C@]3(CO3)[C@@H]2[C@H](OC(C)=O)[C@]2(O)[C@@H](C)C(=O)O[C@H]2[C@H]1Cl` [JUNCIN H] was run?
Answer: 6 mm

Question: And the zone of inhibition at 200 µg/mL [2]?
Answer: 13 mm

Question: And the zone of inhibition at 200 µg/mL [3]?
Answer: 12 mm

Question: And the “diameter of the inhibition zone (DIZ)” value [4]?
Answer: inactive

Question: What about the zone of inhibition at 200 µg/mL [5] of the same compound?
Answer: 10 mm

Question: And the zone of inhibition at 200 µg/mL [6]?
Answer: 14 mm

Question: What about the “diameter of the inhibition zone (DIZ)” value [7] of the same compound?
Answer: inactive

Question: `CC(=O)OCC1=C/[C@@H]2OC(=O)[C@H](C)[C@@]2(O)[C@@H](OC(C)=O)[C@H]2[C@@]3(CO3)[C@H](OC(=O)CC(C)C)C[C@H](OC(=O)CC(C)C)[C@]2(C)[C@@H](OC(C)=O)/C=C\1` [JUNCIN K] was tested. Which zone of inhibition at 200 µg/mL [1] did it give?
Answer: 8 mm

Question: What about the zone of inhibition at 200 µg/mL [2] of the same compound?
Answer: 14 mm

Question: What about the zone of inhibition at 200 µg/mL [3] of the same compound?
Answer: 13 mm

Question: What about the “diameter of the inhibition zone (DIZ)” value [4] of the same compound?
Answer: inactive

Question: And the zone of inhibition at 200 µg/mL [5]?
Answer: 13 mm

Question: What about the zone of inhibition at 200 µg/mL [6] of the same compound?
Answer: 15 mm

Question: And the “diameter of the inhibition zone (DIZ)” value [7]?
Answer: inactive

Question: `CC(=O)N1CCN(c2ccc(OCC3COC(Cn4ccnc4)(c4ccc(Cl)cc4Cl)O3)cc2)CC1` (centres undefined) [KETOCONAZOLE] was tested. Which zone of inhibition at 200 µg/mL [1] did it give?
Answer: 24 mm

Question: What about the “diameter of the inhibition zone (DIZ)” value [2] of the same compound?
Answer: inactive

Question: What about the “diameter of the inhibition zone (DIZ)” value [3] of the same compound?
Answer: inactive

Question: And the zone of inhibition at 200 µg/mL [4]?
Answer: 21 mm

Question: What about the “diameter of the inhibition zone (DIZ)” value [5] of the same compound?
Answer: inactive

Question: And the “diameter of the inhibition zone (DIZ)” value [6]?
Answer: inactive

Question: What about the “diameter of the inhibition zone (DIZ)” value [7] of the same compound?
Answer: inactive
